# In patent US11752149B2, “Muscarinic acetylcholine M1 receptor antagonists” (Pipeline Therapeutics, Inc., priority 2019, dated 2023):
# Molecular target: human M1 receptor (Homo sapiens (Human), UniProt P11229)
# Assay: In vitro functional assay of muscarinic acetylcholine receptor activity, aequorin calcium flux, reversal of EC80 acetylcholine
# Type: cell-based
# Settings: not given
# Experimental: CHO-K1 cells stably expressing human M1 receptor with aequorin (Perkin Elmer) were grown in F12 media (Gibco) containing 10% FBS (ATCC), 0.4 mg/mL geneticin (Sigma-Aldrich) and 0.25 mg/mL Zeocin (Invitrogen). Cells were grown as per the manufacturer's protocol. For compound testing, cells were grown to confluency and detached gently with Accutase (Sigma-Aldrich) followed by centrifugation for 5 min at 150×g. Cells were then re-suspended in assay buffer (i.e. DMEM/F-12 HEPES without phenol red (Invitrogen) with 0.1% BSA (Sigma-Aldrich)) at a density of 5×10^6 cells/ml. Under sterile conditions, 5 μM coelenterazine (Invitrogen) was added to the cells, mixed, then incubated at room temperature protected from light, with gentle agitation, for 4 h.
# Primary compound plates were prepared in 100% DMSO in opaque 96-well plates (VWR) and serially diluted in half log increments. Secondary compound plates were prepared at 3× concentration in assay buffer. Compounds were added to white, clear bottom tissue culture treated 96-well plates (Fisher Scientific). Coelenterazine-loaded cells were then added at 5×10^5 cells/well.
# Compounds and cells were incubated at room temperature for 30 min in the dark. Acetylcholine at the EC80 concentration was added and calcium flux measured using a FlexStation 3 (Molecular Devices). Sigmoidal dose-response curves were generated by measuring luminescence over 40 sec and calculating the area under the curve. Dose response curves and IC50 values were generated using Prism (GraphPad). Compounds were tested at a final concentration range of 100 pM to 10 μM in 0.1% DMSO.
# Sequence of human M1 receptor (P11229 whole entry): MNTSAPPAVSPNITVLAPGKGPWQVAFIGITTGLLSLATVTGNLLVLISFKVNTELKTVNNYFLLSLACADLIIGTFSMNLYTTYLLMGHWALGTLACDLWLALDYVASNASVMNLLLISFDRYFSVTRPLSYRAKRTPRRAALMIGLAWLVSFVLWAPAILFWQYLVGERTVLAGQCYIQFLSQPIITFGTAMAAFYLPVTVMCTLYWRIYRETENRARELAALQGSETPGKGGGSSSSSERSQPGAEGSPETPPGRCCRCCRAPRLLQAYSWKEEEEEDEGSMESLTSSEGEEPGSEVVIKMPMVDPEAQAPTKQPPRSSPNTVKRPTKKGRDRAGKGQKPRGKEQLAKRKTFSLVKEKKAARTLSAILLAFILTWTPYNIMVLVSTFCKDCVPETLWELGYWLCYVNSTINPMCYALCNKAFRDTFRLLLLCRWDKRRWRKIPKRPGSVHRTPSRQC
row,SMILES,IC50 [nM]
1,"N#Cc1ccc(N2C3CCC2CN(C(=O)CCS(=O)(=O)c2ccccc2C2CC2(F)F)C3)nc1 (racemic) [Example 5, 6-(3-(3-((2-(2,2-difluorocyclopropyl)phenyl)-sulfonyl)-propanoyl)-3,8-diazabicyclo[3.2.1]octan-8-yl)nicotinonitrile]",10 to 100
2,"N#Cc1ccc(N2C3CCC2CN(C(=O)CCS(=O)(=O)c2ccccc2[C@@H]2CC2(F)F)C3)nc1 (single isomer, unassigned) [Example 36]",100 to 1000
3,"N#Cc1ccc(N2C3CCC2CN(C(=O)CCS(=O)(=O)c2cccc(F)c2)C3)nc1 [Example 7, 6-{3-[3-(3-fluorobenzenesulfonyl)propanoyl]-3,8-diazabicyclo[3.2.1]octan-8-yl}pyridine-3-carbonitrile]",10 to 100
4,"N#Cc1ccc(N2C3CCC2CN(C(=O)CCS(=O)(=O)c2cc(F)cc(F)c2)C3)nc1 [Example 8, 6-{3-[3-(3,5-difluorobenzenesulfonyl)propanoyl]-3,8-diazabicyclo [3.2.1]octan-8-yl}pyridine-3-carbonitrile]",10 to 100
5,"COc1cccc(S(=O)(=O)CCC(=O)N2CC3CCC(C2)N3c2ccc(C)nn2)c1 [Example 9, 3-(3-methoxybenzenesulfonyl)-1-[8-(6-methylpyridazin-3-yl)-3,8-diazabicyclo[3.2.1]octan-3-yl]propan-1-one]",100 to 1000
6,"COc1cc(F)cc(S(=O)(=O)CCC(=O)N2CC3CCC(C2)N3c2ccc(C#N)cn2)c1 [Example 11, 6-{3-[3-(3-fluoro-5-methoxybenzenesulfonyl)propanoyl]-3,8-diazabicyclo [3.2.1]octan-8-yl}pyridine-3-carbonitrile]",10 to 100
7,"COc1ccccc1S(=O)(=O)CCC(=O)N1CC2CCC(C1)N2c1ccc(C#N)cn1 [Example 12, 6-{3-[3-(2-methoxybenzenesulfonyl)propanoyl]-3,8-diazabicyclo [3.2.1]octan-8-yl}pyridine-3-carbonitrile]",10 to 100
8,"COc1ccc(F)cc1S(=O)(=O)CCC(=O)N1CC2CCC(C1)N2c1ccc(C#N)cn1 [Example 13, 6-{3-[3-(5-fluoro-2-methoxybenzenesulfonyl)propanoyl]-3,8-diazabicyclo [3.2.1]octan-8-yl}pyridine-3-carbonitrile]",10 to 100
9,"COc1c(F)cccc1S(=O)(=O)CCC(=O)N1CC2CCC(C1)N2c1ccc(C#N)cn1 [Example 14, 6-{3-[3-(3-fluoro-2-methoxybenzenesulfonyl)propanoyl]-3,8-diazabicyclo [3.2.1]octan-8-yl}pyridine-3-carbonitrile]",10 to 100
10,"COc1cc(S(=O)(=O)CCC(=O)N2CC3CCC(C2)N3c2ccc(C#N)cn2)ccn1 [Example 15, 6-(3-{3-[(2-methoxypyridin-4-yl)sulfonyl]propanoyl}-3,8-diazabicyclo[3.2.1]octan-8-yl)pyridine-3-carbonitrile]",10 to 100
11,"COc1cccc(S(=O)(=O)CCC(=O)N2CC3CCC(C2)N3c2ccc(C(F)(F)F)cn2)c1 [Example 16, 3-(3-methoxybenzenesulfonyl)-1-{8-[5-(trifluoromethyl)pyridin-2-yl]-3,8-diazabicyclo[3.2.1]octan-3-yl}propan-1-one]",100 to 1000
12,"COc1cccc(S(=O)(=O)CCC(=O)N2CC3CCC(C2)N3c2ccc(C(F)(F)F)nn2)c1 [Example 17, 3-(3-methoxybenzenesulfonyl)-1-{8-[6-(trifluoromethyl)pyridazin-3-yl]-3,8-diazabicyclo[3.2.1]octan-3-yl}propan-1-one]",100 to 1000
13,"COc1cccc(S(=O)(=O)CCC(=O)N2CC3CCC(C2)N3c2ccc(F)c(C#N)c2)c1 [Example 19, 2-fluoro-5-{3-[3-(3-methoxybenzenesulfonyl)propanoyl]-3,8-diazabicyclo [3.2.1]octan-8-yl}benzonitrile]",100 to 1000
14,"COc1cccc(S(=O)(=O)CCC(=O)N2CC3CCC(C2)N3c2ccc(C#N)c(F)c2)c1 [Example 20, 2-fluoro-4-{3-[3-(3-methoxybenzenesulfonyl)propanoyl]-3,8-diazabicyclo [3.2.1]octan-8-yl}benzonitrile]",10 to 100
15,"N#Cc1ccc(N2C3CCC2CN(C(=O)CCS(=O)(=O)c2cccc(OC4CC4)c2)C3)nc1 [Example 21, 6-{3-[3-(3-cyclopropoxybenzenesulfonyl)propanoyl]-3,8-diazabicyclo [3.2.1]octan-8-yl}pyridine-3-carbonitrile]",100 to 1000
16,"N#Cc1ccc(N2C3CCC2CN(C(=O)CCS(=O)(=O)c2cccc(Br)c2)C3)nc1 [Example 22, 6-{3-[3-(3-bromobenzenesulfonyl)propanoyl]-3,8-diazabicyclo [3.2.1]octan-8-yl}pyridine-3-carbonitrile]",100 to 1000
17,"N#Cc1ccc(N2C3CCC2CN(C(=O)CCS(=O)(=O)c2ncccc2C2CC2)C3)nc1 [Example 23, 6-(3-{3-[(3-cyclopropylpyridin-2-yl)sulfonyl]propanoyl}-3,8-diazabicyclo[3.2.1]octan-8-yl)pyridine-3-carbonitrile]",100 to 1000
18,"N#Cc1ccc(N2C3CCC2CN(C(=O)CCS(=O)(=O)c2ccnc(C4CC4)c2)C3)nc1 [Example 25, 6-(3-{3-[(2-cyclopropyl-pyridin-4-yl)sulfonyl]propanoyl}-3,8-diazabicyclo [3.2.1]octan-8-yl)pyridine-3-carbonitrile]",100 to 1000
19,"N#Cc1ccc(N2C3CCC2CN(C(=O)CCS(=O)(=O)c2ccccc2C(F)F)C3)nc1 [Example 26, 6-(3-{3-[2-(difluoromethyl)benzene-sulfonyl]propanoyl}-3,8-diazabicyclo-[3.2.1]octan-8-yl)pyridine-3-carbonitrile]",100 to 1000
20,"N#Cc1ccc(N2C3CCC2CN(C(=O)CCS(=O)(=O)c2cccnc2C2CC2)C3)nc1 [Example 27, 6-(3-{3-[(2-cyclopropylpyridin-3-yl)sulfonyl]propanoyl}-3,8-diazabicyclo[3.2.1]octan-8-yl)pyridine-3-carbonitrile]",10 to 100
21,"N#Cc1ccc(N2C3CCC2CN(C(=O)CCS(=O)(=O)c2ccccc2Br)C3)nc1 [Example 28, 6-(3-(3-((2-bromophenyl)sulfonyl)propanoyl)-3,8-diazabicyclo [3.2.1]octan-8-yl)nicotinonitrile]",100 to 1000
22,"N#Cc1ccc(N2C3CCC2CN(C(=O)CCS(=O)(=O)c2ccccc2C(F)(F)F)C3)nc1 [Example 29, 6-(3-(3-((2-(trifluoromethyl)phenyl)sulfonyl)propanoyl)-3,8-diazabicyclo[3.2.1]octan-8-yl)nicotinonitrile]",100 to 1000
23,"N#Cc1ccc(N2C3CCC2CN(C(=O)CCS(=O)(=O)c2ccccc2OC(F)(F)F)C3)nc1 [Example 30, 6-(3-(3-((2-(trifluoromethoxy)phenyl)sulfonyl)propanoyl)-3,8-diazabicyclo-[3.2.1]octan-8-yl)nicotinonitrile]",100 to 1000
24,"CC(F)(F)c1ccccc1S(=O)(=O)CCC(=O)N1CC2CCC(C1)N2c1ccc(C#N)cn1 [Example 31, 6-(3-(3-((2-(1,1-difluoroethyl)phenyl)sulfonyl)propanoyl)-3,8-diazabicyclo [3.2.1]octan-8-yl)nicotinonitrile]",100 to 1000
25,"Cc1ccc(F)cc1S(=O)(=O)CCC(=O)N1CC2CCC(C1)N2c1ccc(C#N)cn1 [Example 32, 6-(3-(3-((5-fluoro-2-methylphenyl)sulfonyl)propanoyl)-3,8-diazabicyclo [3.2.1]octan-8-yl)nicotinonitrile]",100 to 1000
26,"Cc1cc(F)cc(S(=O)(=O)CCC(=O)N2CC3CCC(C2)N3c2ccc(C#N)cn2)c1 [Example 33, 6-(3-(3-((3-fluoro-5-methylphenyl)sulfonyl)propanoyl)-3,8-diazabicyclo [3.2.1]octan-8-yl)nicotinonitrile]",100 to 1000

# Same assay, conditions: CHO-K1 cells expressing human M1 receptor with aequorin; acetylcholine at EC80; read-out: M1 IC50
row,SMILES,IC50 [nM]
1,"N#Cc1ccc(N2C3CCC2CN(C(=O)CCCS(=O)(=O)c2ccccc2I)C3)nc1 [Example 1, 6-(3-(4-((2-iodophenyl)sulfonyl)butanoyl)-3,8-diazabicyclo[3.2.1]octan-8-yl)nicotinonitrile]",< 10
2,"N#Cc1ccc(N2C3CCC2CN(C(=O)CCS(=O)(=O)c2cccc(F)c2C2CC2)C3)nc1 [Example 4, 6-(3-(3-((2-cyclopropyl-3-fluorophenyl)sulfonyl)-propanoyl)-3,8-diazabicyclo[3.2.1]octan-8-yl)nicotinonitrile]",< 10
3,"CC(C)(O)c1cc(S(=O)(=O)CCC(=O)N2CC3CCC(C2)N3c2ccc(C#N)cn2)ccc1F [Example 6, 6-(3-(3-((4-fluoro-3-(2-hydroxypropan-2-yl)phenyl)-sulfonyl)propanoyl)-3,8-diazabicyclo[3.2.1]octan-8-yl)nicotinonitrile]",1000 to 10000
4,"COc1cccc(S(=O)(=O)CCC(=O)N2CC3CCC(C2)N3c2ccc(C)nc2)c1 [Example 10, 3-(3-methoxybenzenesulfonyl)-1-[8-(6-methylpyridin-3-yl)-3,8-diazabicyclo[3.2.1]octan-3-yl]propan-1-one]",1000 to 10000
5,"COc1cccc(S(=O)(=O)CCC(=O)N2CC3CCC(C2)N3c2ccc(C)cn2)c1 [Example 18, 3-(3-methoxybenzenesulfonyl)-1-[8-(5-methylpyridin-2-yl)-3,8-diazabicyclo[3.2.1]octan-3-yl]propan-1-one]",1000 to 10000
